# Results from PubChem BioAssay AID1259408 (Genetic Toxicology Data Bank (GENE-TOX), 2018).
# Activity calls are given as the source filed them. How the calls were made is not given here.
# Tested on: GENE-TOX genotoxicity assays, various organisms and cells
# Assay: GENE-TOX mutagenicity studies
# Conditions: for call: Assay Type: In vivo carcinogenicity studies
# Text: GENE-TOX provides genetic toxicology (mutagenicity) test data from expert peer review of open scientific literature for more than 3,000 chemicals from the United States Environmental Protection Agency (EPA). GENE-TOX was established to select assay systems for evaluation, review data in the scientific literature, and recommend proper testing protocols and evaluation procedures for these systems.
# GENE-TOX covers the years 1991 - 1998. It is no longer updated.
# This is an archive assay for GENE-TOX mutagenicity studies.
# [1] = Species/Cell Type: Escherichia coli polA (W3119 vs P3478), Assay Type: Rec-assay, DNA effects (bacterial DNA repair), Assay Code: RE1+, Evaluation Type: Evaluation A (Pre-1980)
# [2] = Species/Cell Type: Human diploid fibroblasts, Assay Type: Unscheduled DNA synthesis (UDS) in vitro, DNA effects, Assay Code: UDH-, Evaluation Type: Evaluation A (Pre-1980)
# [3] = Species/Cell Type: Human, Assay Type: Sister-chromatid exchange (SCE) in vitro, Assay Code: SC1+D, Dose Response: With dose response, Evaluation Type: Evaluation B (Post-1980)
# [4] = Species/Cell Type: Saccharomyces cerevisiae, Assay Type: Mitotic recombination or gene conversion, Assay Code: YEH-, Evaluation Type: Evaluation A (Pre-1980)
# [5] = Species/Cell Type: Salmonella typhimurium (one or more of the five standard strains: TA98, TA100, TA1535, TA1537, and TA1538), Assay Type: Histidine reverse gene mutation, Ames assay, Assay Code: SALT, Evaluation Type: Evaluation A (Pre-1980)
# [6] = Species/Cell Type: Bacillus subtilis (H17 vs M45), Assay Type: Rec-assay, spot test, DNA effects (bacterial DNA repair), Assay Code: REW+, Evaluation Type: Evaluation A (Pre-1980)
# [7] = Species/Cell Type: Saccharomyces cerevisiae, Assay Type: Mitotic recombination or gene conversion, Assay Code: YEH+, Evaluation Type: Evaluation A (Pre-1980)
# [8] = Species/Cell Type: Salmonella typhimurium (one or more of the five standard strains: TA98, TA100, TA1535, TA1537, and TA1538), Assay Type: Histidine reverse gene mutation, Ames assay, Assay Code: SAL+, Evaluation Type: Evaluation A (Pre-1980)
# [9] = Species/Cell Type: Fischer rat embryo (RLV/1706) cells, Assay Type: Cell transformation, viral enhanced, Assay Code: CTR+, Evaluation Type: Evaluation A (Pre-1980)
# [10] = Species/Cell Type: Nonhuman, Assay Code: CCGT, Evaluation Type: Evaluation A (Pre-1980)
# [11] = Species/Cell Type: Nonhuman, Assay Code: CCG+, Evaluation Type: Evaluation A (Pre-1980)
# [12] = Species/Cell Type: Allium cepa, Assay Type: Chromosome aberrations, Assay Code: ALC+, Evaluation Type: Evaluation A (Pre-1980)
structure (smiles),measurement,setting,value
CCOP(=S)(OCC)Oc1nc(Cl)c(Cl)cc1Cl,mutagenic call,"Species/Cell Type: Drosophila melanogaster, Assay Type: Sex-linked recessive lethal gene mutation, Assay Code: SRLT, Evaluation Type: Evaluation A (Pre-1980)",no conclusion
same,mutagenic call,[1],active; positive
same,mutagenic call,[2],inactive; negative
same,mutagenic call,[3],active; positive
same,mutagenic call,"Species/Cell Type: Nonhuman, Assay Type: Sister-chromatid exchange (SCE) in vitro, Assay Code: SC2T, Evaluation Type: Evaluation B (Post-1980)",no conclusion
same,mutagenic call,"Species/Cell Type: Nonhuman, Assay Type: Sister-chromatid exchange (SCE) in vivo, Assay Code: SC3-, Evaluation Type: Evaluation B (Post-1980)",inactive; negative
same,mutagenic call,[4],inactive; negative
same,mutagenic call,[5],no conclusion
ClCc1ccccc1,mutagenic call,[6],active; positive
same,mutagenic call,"Species/Cell Type: Chinese hamster ovary (CHO) cells, Assay Type: Forward gene mutation at the HPRT locus, Assay Code: CHOT, Evaluation Type: Evaluation B (Post-1980)",no conclusion
same,mutagenic call,"Species/Cell Type: Escherichia coli polA (W3110 vs P3478), Assay Type: Rec-assay, DNA effects (bacterial DNA repair), Assay Code: RE2+, Evaluation Type: Evaluation A (Pre-1980)",active; positive
same,mutagenic call,[1],active; positive
same,mutagenic call,"Species/Cell Type: Human diploid fibroblasts, Assay Type: Unscheduled DNA synthesis (UDS) in vitro, DNA effects, Assay Code: UDH+, Evaluation Type: Evaluation A (Pre-1980)",active; positive
same,mutagenic call,"Species/Cell Type: Human lymphocytes, Assay Type: Sister-chromatid exchange (SCE) in vitro, Assay Code: SCL+, Evaluation Type: Evaluation B (Post-1980)",active; positive
same,mutagenic call,"Species/Cell Type: Human, Assay Type: Sister-chromatid exchange (SCE) in vitro, Assay Code: SC1+, Evaluation Type: Evaluation B (Post-1980)",active; positive
same,mutagenic call,"Species/Cell Type: Mammalian polychromatic erythrocytes, Assay Type: Micronucleus test, chromosome aberrations, Assay Code: MNT-, Evaluation Type: Evaluation B (Post-1980)",inactive; negative
same,call,"Species/Cell Type: Nonhuman, Assay Code: CCG+L, Evaluation Type: Evaluation A (Pre-1980)",active; positive
same,mutagenic call,[7],active; positive
same,mutagenic call,[8],active; positive
same,mutagenic call,"Species/Cell Type: Salmonella typhimurium, Assay Type: Forward and reverse gene mutation, host-mediated assay, Assay Code: HMA-, Evaluation Type: Evaluation A (Pre-1980)",inactive; negative
same,mutagenic call,"Species/Cell Type: Syrian hamster embryo (SHE) cells, Assay Type: Cell transformation, clonal assay, Assay Code: CTC+, Evaluation Type: Evaluation A (Pre-1980)",active; positive
S=C(NC1CCCCC1)NC1CCCCC1,mutagenic call,[9],active; positive
Cc1cc(C(=O)NNCc2ccccc2)no1,mutagenic call,"Species/Cell Type: Nonhuman, Assay Type: Sister-chromatid exchange (SCE) in vivo, Assay Code: SC3+, Evaluation Type: Evaluation B (Post-1980)",active; positive
CNC(=O)Oc1cccc(C)c1,mutagenic call,"Species/Cell Type: Bacillus subtilis (H17 vs M45T), Assay Type: Rec-assay, spot test, DNA effects (bacterial DNA repair), Assay Code: REX-, Evaluation Type: Evaluation A (Pre-1980)",inactive; negative
same,mutagenic call,"Species/Cell Type: Escherichia coli WP2, Assay Type: Tryptophan reverse gene mutation, Assay Code: WP2-, Evaluation Type: Evaluation A (Pre-1980)",inactive; negative
CCOC(=O)N(C)C(=O)CSP(=S)(OCC)OCC,mutagenic call,"Species/Cell Type: Bacillus subtilis (H17 vs M45), Assay Type: Rec-assay, spot test, DNA effects (bacterial DNA repair), Assay Code: REWT, Evaluation Type: Evaluation A (Pre-1980)",no conclusion
C1=C[C@H]2O[C@H]2c2c1cc1ccc3cccc4ccc2c1c34,mutagenic call,"Species/Cell Type: Chinese hamster lung (V79) cells, Assay Type: Forward gene mutation at the HPRT or ouabain locus, Assay Code: V79-, Evaluation Type: Evaluation A (Pre-1980)",inactive; negative
same,call,[10],no conclusion
same,mutagenic call,[8],active; positive
c1ccc2c(c1)cc1ccc3cc4ccccc4c4ccc2c1c34,call,[11],active; positive
same,mutagenic call,"Species/Cell Type: Salmonella typhimurium (one or more of the five standard strains: TA98, TA100, TA1535, TA1537, and TA1538), Assay Type: Histidine reverse gene mutation, Ames assay, Assay Code: SAL+*, Activation: With metabolic activation, Evaluation Type: Evaluation A (Pre-1980)",active; positive
O=C1c2ccccc2C(=O)c2c(O)c(S(=O)(=O)O)cc(O)c21,mutagenic call,[8],active; positive
c1ccc(N=NNc2ccccc2)cc1,mutagenic call,[12],active; positive
O=c1ccc2c(cc(O)c3c4ccccc4nnc23)o1,mutagenic call,"Species/Cell Type: Mammalian polychromatic erythrocytes, Assay Type: Micronucleus test, chromosome aberrations, Assay Code: MNTT, Evaluation Type: Evaluation B (Post-1980)",no conclusion
COc1cc(NNc2ccccc2)ccc1N=O,mutagenic call,[8],active; positive
CCCCCOC(=O)COc1cc(Cl)c(Cl)cc1Cl,mutagenic call,"Species/Cell Type: Saccharomyces cerevisiae, Assay Type: Mitotic recombination or gene conversion, Assay Code: YEC-, Evaluation Type: Evaluation A (Pre-1980)",inactive; negative
O=C(O)COc1ccc(Cl)cc1Cl,mutagenic call,[12],active; positive
same,mutagenic call,[6],active; positive
same,mutagenic call,"Species/Cell Type: Chinese hamster lung (V79) cells, Assay Type: Forward gene mutation at the HPRT or ouabain locus, Assay Code: V79+, Evaluation Type: Evaluation A (Pre-1980)",active; positive
same,mutagenic call,"Species/Cell Type: Drosophila melanogaster, Assay Type: Aneuploidy, sex chromosome gain, chromosome aberrations, Assay Code: DAG-M-F, Evaluation Type: Evaluation A (Pre-1980)",inactive; negative
same,mutagenic call,"Species/Cell Type: Drosophila melanogaster, Assay Type: Aneuploidy, whole sex chromosome loss, chromosome aberrations, Assay Code: DAC-M-F, Evaluation Type: Evaluation A (Pre-1980)",inactive; negative
same,mutagenic call,"Species/Cell Type: Drosophila melanogaster, Assay Type: Sex-linked recessive lethal gene mutation, Assay Code: SRL-, Evaluation Type: Evaluation A (Pre-1980)",inactive; negative
same,mutagenic call,"Species/Cell Type: Escherichia coli WP2 UVRA, Assay Type: Tryptophan reverse gene mutation, Assay Code: WPU-*, Activation: With metabolic activation, Evaluation Type: Evaluation A (Pre-1980)",inactive; negative
same,mutagenic call,[1],active; positive
same,mutagenic call,[2],inactive; negative
same,mutagenic call,"Species/Cell Type: Human lymphocytes or leukocytes, Assay Type: Chromosome aberrations in vitro, Assay Code: CY7+, Evaluation Type: Evaluation A (Pre-1980)",active; positive
same,mutagenic call,"Species/Cell Type: Human lymphocytes, Assay Type: Sister-chromatid exchange (SCE) in vitro, Assay Code: SCL+D, Dose Response: With dose response, Evaluation Type: Evaluation B (Post-1980)",active; positive
same,mutagenic call,[3],active; positive
same,mutagenic call,"Species/Cell Type: Mammalian polychromatic erythrocytes, Assay Type: Micronucleus test, chromosome aberrations, Assay Code: MNTT, Evaluation Type: Evaluation A (Pre-1980)",no conclusion
same,mutagenic call,"Species/Cell Type: Nonhuman bone marrow, Assay Type: Chromosome aberrations, in vivo, Assay Code: CY#+, Evaluation Type: Evaluation A (Pre-1980)",active; positive
same,call,[10],no conclusion
same,mutagenic call,"Species/Cell Type: Saccharomyces cerevisiae, Assay Type: Mitotic recombination or gene conversion, Assay Code: YEC+, Evaluation Type: Evaluation A (Pre-1980)",active; positive
same,mutagenic call,[7],active; positive
same,mutagenic call,[4],inactive; negative
same,mutagenic call,"Species/Cell Type: Salmonella typhimurium (one or more of the five standard strains: TA98, TA100, TA1535, TA1537, and TA1538), Assay Type: Histidine reverse gene mutation, Ames assay, Assay Code: SAL-, Evaluation Type: Evaluation A (Pre-1980)",inactive; negative
same,mutagenic call,[5],no conclusion
same,mutagenic call,"Species/Cell Type: Salmonella typhimurium, Saccharomyces cerevisiae, Assay Type: Forward and reverse gene mutation, mitotic recombination and gene conversion, DNA effects, host-mediated assay, Assay Code: HM3-, Evaluation Type: Evaluation A (Pre-1980)",inactive; negative
same,mutagenic call,"Species/Cell Type: Vicia faba, Assay Type: Chromosome aberrations, Assay Code: VIC+, Evaluation Type: Evaluation A (Pre-1980)",active; positive
Cc1c2c(c(C)c3c1ccc1ccccc13)[C@H](O)[C@@H](O)C=C2,call,[10],no conclusion
CN(C)c1ccc(C(=O)c2ccc(N(C)C)cc2)cc1,mutagenic call,[9],active; positive
same,call,[11],active; positive
